In PubChem BioAssay (NCI):
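Step 1: Grow cells in 96-well plates. Step 2: Expose to compound for 48 hours at 5 concentrations. Step 3: Interpolate endpoints linearly; if unreached, use highest concentration. The concentration for full growth arrest is given as TGI.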

Tests used:
Test in all cases: inhibition of tumour cell growth, NCI panel, 48 h
DU-145 prostate = system: DU-145 prostate
RPMI-8226 leukemia = system: RPMI-8226 leukemia
HS 578T breast = system: HS 578T breast
SNB-78 CNS = system: SNB-78 CNS
HCC-2998 colon = system: HCC-2998 colon

| Structure (SMILES) | TGI (DU-145 prostate) [µM] | TGI (RPMI-8226 leukemia) [µM] | TGI (HS 578T breast) [µM] | TGI (SNB-78 CNS) [µM] | TGI (HCC-2998 colon) [µM] |
| --- | --- | --- | --- | --- | --- |
| COc1ccc(-c2c(C(C)=O)c(C)n(C3OC(CO)C(O)C(O)C3O)c(=S)c2C#N)cc1 (stereo not given) | > 100 | > 100 | > 100 |  |  |
| NC(CO)c1ccccc1 (stereo not given) |  |  |  | > 100 | > 100 |
